{"source": "paper PMC8518411", "about": "“Discovery of GPR183 Agonists Based on an Antagonist Scaffold” (Chemmedchem, 2021)", "key": {"GPR183 [1]": {"molecular_target": "T1, GPR183 (Homo sapiens, UniProt P32249)", "T1 sequence (P32249 whole entry)": "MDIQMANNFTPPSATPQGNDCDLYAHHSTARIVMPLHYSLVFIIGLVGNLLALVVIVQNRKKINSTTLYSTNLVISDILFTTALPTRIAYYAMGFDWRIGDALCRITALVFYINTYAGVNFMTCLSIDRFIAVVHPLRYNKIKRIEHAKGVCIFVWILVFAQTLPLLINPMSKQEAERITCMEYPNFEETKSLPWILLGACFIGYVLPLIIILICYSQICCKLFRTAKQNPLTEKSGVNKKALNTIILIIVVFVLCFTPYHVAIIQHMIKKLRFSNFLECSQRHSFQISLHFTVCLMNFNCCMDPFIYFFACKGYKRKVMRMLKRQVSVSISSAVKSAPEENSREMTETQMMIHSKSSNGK", "experiment": "cell-based"}, "GPR183 [2]": {"molecular_target": "T1, GPR183", "format": "cell-based", "parameters": "hemagglutinin signal peptide (upstream of the FLAG tag) (N); expressed in transfected cells; host or cells: CHO-K1 (ATCC CCL-61), transient lipofection, modified pcDNA3 vector", "settings": "for agonist activity in calcium mobilization screen: 10 μM compound"}, "GPR183 [3]": {"molecular_target": "T1, GPR183", "experiment": "BRET cAMP (CAMYEL biosensor) assay, antagonist mode (antagonist added 10 min prior to agonist)", "format": "cell-based", "parameters": "hemagglutinin signal peptide (upstream of the FLAG tag) (N); expressed in transfected cells; host or cells: CHO-K1 (ATCC CCL-61), transient lipofection, modified pcDNA3 vector"}, "GPR183 [4]": {"molecular_target": "T1, GPR183", "settings": "dose-response, BRET"}, "[5]": {"settings": "calcium assay dose-response, mean of 3 experiments in duplicates, read-out: EC50 (potency)"}, "[6]": {"settings": "EC50 (potency), Gαi coupling, BRET, three experiments"}}, "note": "pEC50: −log10 of the molar value. Entries after “also recorded” stand apart in the source; their conditions may differ. Like-named read-outs stand apart in the source and are kept apart here."}
{"compound": "C[C@H](CCCC(C)(C)O)[C@H]1CC[C@H]2[C@@H]3[C@H](O)C=C4C[C@@H](O)CC[C@]4(C)[C@H]3CC[C@]12C", "note": "[Compound 1, 7α,25‐dihydroxycholesterol, reference compound]", "values": [{"measurement": "pEC50", "setting": "GPR183 [1]", "result": 7.72}, {"measurement": "pEC50", "setting": "GPR183 [2]", "result": 7.77}]}
{"compound": "Cc1nn(C)c(C)c1/C=C/C(=O)N1CCN(C(=O)C2COc3ccccc3O2)CC1", "note": "(centres unmarked) [Compound 9]", "values": [{"measurement": "pEC50", "setting": "GPR183 [2]; [5]", "result": 6.20}]}
{"compound": "O=C(/C=C/c1cccs1)N1CCN(C(=O)c2cccc3ccccc23)CC1", "note": "[Compound 10]", "values": [{"measurement": "pEC50", "setting": "GPR183 [2]; [5]", "result": 7.07}]}
{"compound": "O=C(/C=C/c1ccccc1Br)N1CCN(C(=O)Cc2ccc(F)cc2)CC1", "note": "[Compound 12]", "values": [{"measurement": "pEC50", "setting": "GPR183 [2]; [5]", "result": 6.97}]}
{"compound": "O=C(CCC1CCCC1)N1CCN(C(=O)c2cc(=O)c3ccccc3o2)CC1", "note": "[Compound 13]", "values": [{"measurement": "pEC50", "setting": "GPR183 [2]; [5]", "result": 6.78}]}
{"compound": "O=C(COc1cccc2ccccc12)N1CCN(C(=O)c2ccccc2)CC1", "note": "[Compound 15]", "values": [{"measurement": "pEC50", "setting": "GPR183 [1]; [6]", "result": 6.18}, {"measurement": "pEC50", "setting": "GPR183 [2]; [5]", "result": 6.68}]}
{"compound": "COc1cc(C(=O)N2CCN(C(=O)COc3ccc(Cl)cc3C)CC2)ccc1C", "note": "[Compound 16]", "values": [{"measurement": "pEC50", "setting": "GPR183 [1]; [6]", "result": 7.29}, {"measurement": "pEC50", "setting": "GPR183 [1]; pEC50±SE, Gαi coupling, BRET", "result": 7.30}, {"measurement": "pEC50", "setting": "GPR183 [2]; [5]", "result": 6.75}]}
{"compound": "O=C(COc1ccc(F)cc1Br)N1CCN(C(=O)C2COc3ccccc3O2)CC1", "note": "(centres unmarked) [Compound 17]", "values": [{"measurement": "pEC50", "setting": "GPR183 [2]; [5]", "result": 6.56}]}
{"compound": "O=C(COc1ccc(F)cc1Cl)N1CCN(C(=O)c2cccs2)CC1", "note": "[Compound 18]", "values": [{"measurement": "agonist activity in calcium mobilization screen", "setting": "GPR183 [2]", "result": "active"}, {"measurement": "pEC50", "setting": "GPR183 [2]; [5]", "result": 6.13}]}
{"compound": "O=C(COc1ccc2c(c1)CCC2)N1CCN(C(=O)c2cccs2)CC1", "note": "[Compound 69]", "values": [{"measurement": "agonist activity in calcium mobilization screen", "setting": "GPR183 [2]", "result": "inactive"}]}
{"compound": "O=C(/C=C/c1ccccc1)N1CCN(C(=O)c2ccccc2)CC1", "note": "[Compound 88]", "values": [{"measurement": "inhibition at 10 µM", "setting": "GPR183 [3]; 10 μM (highest concentration tested), 10 nM of agonist 1 after preincubation, read-out: inhibition of G protein activity induced by 1", "result": 79, "unit": "%"}]}
{"compound": "O=C(COc1ccccc1)N1CCN(C(=O)c2ccccc2)CC1", "note": "[Compound 90]", "values": [{"measurement": "antagonist properties (inhibition of G protein activity induced by 1)", "setting": "GPR183 [3]; 10 nM of agonist 1 after preincubation with compound", "result": "did not inhibit"}, {"measurement": "agonist activity (Gαi coupling)", "setting": "GPR183 [4]", "result": "inactive"}]}
{"compound": "Cc1cc(Cl)ccc1OCC(=O)N1CCN(C(=O)c2ccccc2)CC1", "note": "[Compound 91]", "values": [{"measurement": "pEC50", "setting": "GPR183 [1]; [6]", "result": 7.19}, {"measurement": "pEC50", "setting": "GPR183 [1]; pEC50±SE, Gαi coupling, BRET", "result": 7.20}, {"measurement": "agonist activity (Gαi coupling)", "setting": "GPR183 [4]", "result": "partial agonist properties; also recorded: active"}]}
{"compound": "COc1cc(C(=O)N2CCN(C(=O)COc3cccc4ccccc34)CC2)ccc1C", "note": "[Compound 92]", "values": [{"measurement": "pEC50", "setting": "GPR183 [1]; [6]", "result": 6.12}, {"measurement": "agonist activity (Gαi coupling)", "setting": "GPR183 [4]", "result": "partial agonist properties"}]}
